Assay [1] deals with acetylated histone H3. As to the kind of experiment: Acetylated histone H3 in PBMNCs of a Phase I depsipeptide patient. In kind it is in vivo, human. The note with it: after administration of depsipeptide. The text has this: (§1) In addition to the above, PBMNCs were obtained from a patient enrolled in a Phase I depsipeptide (FR901228) study (concentrations used with cultured cells are within the range administered to patients) and examined.

Assay [2] deals with G-CSF-mobilized peripheral blood mononuclear cells (PBMNCs). As to the kind of experiment: Adenoviral β-galactosidase transgene expression in PBMNCs. The note with it: pre-treated 0.1 ng/ml for 24 hr, moi=10, incubation less than 1 hr. Format: cell-based. The source says:
(§2) […] […] Adenovirus transgene expression was compared using the β-Gal Staining Kit (Invitrogen, Carlsbad, Calif.) and β-gal positive cells were counted from three non-overlapping fields.

In assay [3] the test system is CD34+ selected peripheral blood stem cells (PBSCs). Description: Adenoviral β-galactosidase transgene expression in CD34+ PBSCs. In kind it is cell-based. The note with it: pre-treated 0.1 ng/ml for 24 hr, moi=10, incubation less than 1 hr.
From the text: as §2

The next assay has as its system CAR. As to the kind of experiment: CAR expression in PBMNCs of a Phase I depsipeptide patient. Format: in vivo, human.
From the text: as §1

Assay [4] concerns coxsackie-adenovirus receptor (CAR). As to the kind of experiment: RT-PCR analysis of CAR RNA levels in cultured cells. In kind it is cell-based, human. The note with it: for level of CAR (RT-PCR), compared with K562: less than 3 ng/ml; for level of CAR (RT-PCR): HUVEC. The method, then:
RT-PCR for CAR and integrin αv was performed using total RNA extracted with the RNeasy Mini Kit (Qiagen, Valencia, Calif.). Single-stranded oligo(dt)-primed cDNA was generated from 1 μg of RNA in a 20 μl reaction using MMLV reverse transcriptase (Life Technologies, Eggenstein, Germany). Oligonucleotide primers used for analysis of human CAR (Bergelson et al., supra) and αv integrin (Suzuki et al., Proc. Natl. Acad. Sci. U.S.A. 83:8614-8618 (1986)) RNA expression were:
These primers generated products that were 631 bp (CAR) and 490 bp (αv integrin) in length. The amplification reaction was carried out with 1 μg of the cDNA product for 30 cycles, and each cycle consisted of 94° C for 20 sec, 64° C. for 30 sec and 72° C. for 1 min, followed by a final 10 min elongation at 72° C. Comparability of RNA quantities was assured using β-actin as an internal standard. Oligonulceotide primers for human β-actin RNA amplification were: […]

Another assay deals with histone H3. Description: Western blot analysis of total histone H3. Format: cell-based, human. Here is the method: (§3) Supernatants were collected as nuclear extracts. Ten lag of protein were separated on an 11% SDS-PAGE gel, and electroblotting to Immobilon™-P transfer membrane (Millipore, Bedford, Mass.) was performed. The membrane was incubated for 30 min with either a rabbit polyclonal antibody against acetylated histone H3 (Upstate Biotechnology, Lake Placid, N.Y.) or a rabbit polyclonal antibody against histone H3 (Upstate Biotechnology, Lake Placid, N.Y.) diluted 1:2000 in 5% milk. After washing, anti-rabbit Ig horseradish peroxidase-linked secondary antibody (Amersham Pharmacia Biotech, Piscataway, N.J.) was added and incubated for 30 min. After washing, the membrane was developed in ECL™ Western blotting detection reagents (Amersham Pharmacia Biotech, Piscataway, N.J.).
(Immunoblotting shows a protein as a band on a membrane.)

For assay [5], the system named is A498, MCF7 and HepG2 cancerous cell lines. As to the kind of experiment: β-galactosidase expression upon AdCMVβgal infection, cancerous cell lines (Example 4). In kind it is cell-based, human. The method, then: (§4) 10^4 untreated cells or 10^4 cells pre-treated with 1 ng/ml depsipeptide for 72 hrs were plated on a round cover glass (DAIGGER, Vernon Hills, Ill.) in 24 well plates. Cells were transduced with 100 MOI of Ad-βgal in medium without serum for 1 hr and maintained with serum-containing medium for 48 hrs after transduction. Adenovirus transgene expression was compared using the β-Gal Staining Kit (Invitrogen, Carlsbad, Calif.) and β-gal positive cells were counted from three non-overlapping fields.
A498, MCF7 and HepG2 cancerous cell lines and normal cells (Clonetics, Walkersville, Md.) were treated with FR901228. […] Induction of CAR was only observed in normal cells at 10-20 ng/ml FR901228 and then only a two-fold increase in CAR was observed.

A further assay has as its system αv integrin. As to the kind of experiment: RT-PCR analysis of αv integrin RNA levels in cultured cells. In kind it is cell-based, human. Here is the method:
RT-PCR for CAR and integrin αv was performed using total RNA extracted with the RNeasy Mini Kit (Qiagen, Valencia, Calif.). Single-stranded oligo(dt)-primed cDNA was generated from 1 μg of RNA in a 20 μl reaction using MMLV reverse transcriptase (Life Technologies, Eggenstein, Germany).
The amplification reaction was carried out with 1 μg of the cDNA product for 30 cycles, and each cycle consisted of 94° C for 20 sec, 64° C. for 30 sec and 72° C. for 1 min, followed by a final 10 min elongation at 72° C. Comparability of RNA quantities was assured using β-actin as an internal standard. Oligonulceotide primers for human β-actin RNA amplification were: […]

For assay [6], the system named is human cancer cell lines FTC 236, SW-1736, SW620, A498, MCF7, HepG2. Description: Transduction efficiency by Ad-βgal (β-gal positive cells), six cancer cell lines. Format: cell-based. The note with it: 72 hrs with 1 ng/ml depsipeptide. The method, then:
A total of 6 human cancer cell lines were tested: a follicular thyroid carcinoma (FTC 236) (Demeure et al., World J. Surg. 16:770-776 (1992)); an anaplastic thyroid carcinoma (SW-1736) (Ain et al., J. Clin. Endocrinol. Metab. 81:3650-3653 (1996)); a colon carcinoma (SW620) (Leibovitz et al., Cancer Res. 36:4562-4569 (1976)); a renal cell carcinoma (A498) (Giard et al., J. Natl. Cancer Inst. 51:1417-1423 (1973)); a breast carcinoma (MCF7) (Soule et al., J. Natl. Cancer Inst. 51:1409-1413 (1973)); and a hepatocarcinoma (HepG2) (Knowles et al., Science 209:497-499 (1980)).
The Ad5.CMV-LacZ is an E1 and E3 gene deleted replication defective type 5 adenovirus obtained from Qbiogene (Carlsbad, Calif.). It was grown in 293A cells according to protocols supplied by the company. The AdCMVβgal virus was purified and the titer was determined by the TCID50 assay as described by the manufacturer.
as §4

For a further assay, the system named is K562 cells. Description: Adenoviral β-galactosidase transgene expression in K562. The note with it: pre-treated 1 ng/ml for 24 hr, moi=50, incubation less than 1 hr. In kind it is cell-based, human.
From the text: as §2

Assay [7] concerns acetylated histone H3. As to the kind of experiment: Western blot analysis of acetylated histone H3. In kind it is cell-based, human. The method, then:
as §3, with “Ten lag of protein were separated on an 11% SDS-PAGE gel, and electroblotting to Immobilon™-P transfer membrane (Millipore, Bedford, Mass.) was performed.” left out

The subject of assay [8] is human umbilical vein endothelial cells (HUVEC). Description: Adenoviral β-galactosidase transgene expression in HUVEC. Format: cell-based. The settings on record: HUVEC treated with 0.3 ng/ml for 48 hr prior to adenoviral infection. The text has this:
[…] Cells were transduced with 100 MOI of Ad-βgal in medium without serum for 1 hr and maintained with serum-containing medium for 48 hrs after transduction. Adenovirus transgene expression was compared using the β-Gal Staining Kit (Invitrogen, Carlsbad, Calif.) and β-gal positive cells were counted from three non-overlapping fields.

[9] abbreviates: 1 ng/ml depsipeptide for 72 hrs, all six human cancer cell lines.
[10] abbreviates: A498, MCF7, HepG2 cancerous cells, 1 ng/ml.

On to `C/C=C1\NC(=O)[C@H]2CSSCC/C=C/[C@H](CC(=O)N[C@H](C(C)C)C(=O)N2)OC(=O)[C@H](C(C)C)NC1=O` [FR901228], for which the “level of acetylated histone H3 in patient PBMNCs” value with acetylated histone H3 [1] was “increased”. The “cells expressing β-galactosidase” value is reported as “more than 80%” in assay [2]; “more than 80%” in assay [3]; 72-88% in assay [6] (then adenovirus with CMV-β-galactosidase, six cancer cell lines); “more than 80%” with K562 cells. Moreover, the “CAR expression in patient PBMNCs” value with CAR (after completion of a 4 hr depsipeptide infusion) is listed as “increase”; with CAR (at 24 hr of depsipeptide infusion), “further increase”. Besides, in assay [4] (setting [9]), the “expression of endogenous CAR” value is reported as “increased expression”. Moreover, the CAR expression result in assay [4] (setting [10]) is “increased CAR expression in cancerous cells to levels higher than those found in normal cells”. For the same compound, the “level of CAR (RT-PCR), compared with K562” value in assay [4] (CD34+ selected PBSCs) and in assay [4] (G-CSF-mobilized PBMNCs) was “Comparable levels of CAR” throughout. Moreover, the “level of CAR (RT-PCR)” value in assay [4] (0.3 ng/ml for 48 hr) is “increased the level of CAR significantly”. Also, the “increase in level of CAR (RT-PCR)” value in [4] (K562 cells, 1 ng/ml) is “about 3 fold”. In assay [4] (normal cells (Clonetics)), the “concentration at which induction of CAR was observed” value was in the range of 10 to 20 ng/mL. For the same compound, in [4] (normal cells, 10-20 ng/ml), the “increase in CAR” value is “two-fold”. For the same compound, the “level of histone H3” value in the assay with histone H3 (HUVEC) is reported as “not altering the level of histone H3”. The “total histone H3 levels” value in the assay with histone H3 (K562 cells and CD34+ PBSCs) is “No significant change”. In addition, the “cancerous cells expressing β-galactosidase” value in [5] (A498, MCF7, HepG2 following FR901228 treatment) was 75-85%. Also, the “increase in β-galactosidase expression upon infection” value in assay [5] (all cancerous cell lines (A498, MCF7, HepG2) following FR901228 treatment) is given as 4-10 fold. Moreover, the “expression of endogenous αv integrin” value in the assay with αv integrin (setting [9]) is listed as “increased expression”. Further, the “levels of αv integrins” value with αv integrin (setting [10]) is reported as “increased from undetectable to a level similar to that found in untreated normal cells”. The “levels of αv integrins (printed 'o integrins')” value in the assay with αv integrin (normal cells treated in the same manner) is on record as “little increase”. The “frequency of expression of the β-galactosidase transgene” value in assay [6] (all cell lines) is listed as “marked increases”. For the same compound, the histone acetylation result in the assay on acetylated histone H3 [7] (1 ng/ml depsipeptide, cancer cell lines of Example 1) is listed as “marked increase”; with acetylated histone H3 [7] (cancerous cells, 1 ng/ml), “increased histone acetylation”. Also, the “level of acetylated histone H3” value in the assay on acetylated histone H3 [7] (CD34+ PBSCs), with acetylated histone H3 [7] (HUVEC) and with acetylated histone H3 [7] (K562 cells) was “increased the level of acetylated histone H3 substantially” each time. In addition, the “concentration required to increase histone acetylation” value in the assay with acetylated histone H3 [7] (normal cells, compared with cancerous cells) is recorded as “higher concentration”. Further, the “cells expressing the β-galactosidase transgene” value in assay [8] was “over 80%”.
Regarding `CCCC(=O)[O-].[Na+]` [sodium butyrate], in assay [4] (concentration not given), the “level of CAR (RT-PCR)” value was “little effect”.
On to `CC(/C=C/C(=O)NO)=C\[C@@H](C)C(=O)c1ccc(N(C)C)cc1` [trichostatin A], for which the “level of CAR (RT-PCR)” value in assay [4] (concentration not given) was “increased the level of CAR slightly”.

The values above are taken from patent US20040259772A1, “Use of a histone deacetylase inhibitor to increase the entry of an adenoviral agent into a cell” (priority 2001, published 2004).
